US6984656B2, “Core modified porphyrins” (priority 2001, dated 2006)

Tests used:
Colo-26 cells = assay: Dark and light-induced toxicity toward Colo-26 cells in culture; format: cell-based, murine
Method: In order to compare relative phototoxicity, the core-modified porphyrins of Table 1 were evaluated in culture for dark and light-induced toxicities toward Colo-26 cells, a murine colon carcinoma cell line.

[1] = Quantum yield for the generation of singlet oxygen; format: physicochemical; details: aqueous solution
[2] = Rate of photobleaching in phosphate-buffered saline; format: physicochemical; details: PBS; 570-750 nm light at 500 mW cm^−2; constant initial absorbance
Source text: One limitation of PDT dosimetry is the rate of photobleaching of the photosensitizer, which can be problematic with Photofrin® and even more problematic with the bacteriochlorins and the chlorins (such as HPPH).

[3] = test system: R3230AC rat mammary adenocarcinoma cells; assay: Phototoxicity toward R3230AC cells in culture; format: cell-based; details: 10 μM, 24 h; 570-800 nm light, 0.9 J cm^−2; 24 h post-irradiation
Method: Similar results were obtained with R3230AC rat mammary adenocarcinoma cells in vitro. […] Light-treated cells and dark controls were incubated for 24 h and cell survival was determined. The surviving fraction, 24 h post-irradiation, is shown graphically in FIG. 4c.

MCF-7 cells = assay: Photosensitizer uptake in cultured MCF-7 cells by fluorescence; format: cell-based; details: 10 μM and 100 μM, 24 h
Method: To establish baseline fluorescence, control cells incubated with MEM not containing either photosensitizer were used. […] A time course to determine when the fluorescence approached its maximum was performed for DH-82 and Photofrin®.
To determine the final intracellular concentrations of each sensitizer, cells in 96-well plates were incubated with sensitizer for 24 h. Detection of fluorescence in sensitizer-treated cells was made directly in the wells of the 96-well plate using the appropriate excitation and emission wavelengths.
Photosensitizer uptake experiments are conducted with fluorescent sensitizers. First, cells will be removed from 100-mm dishes by trypsinization (see above) and seeded on 96-well plates at 5×10^4 cells/well in 200 μL of MEM. […] To establish baseline fluorescence, control cells incubated with MEM not containing any photosensitizer are used. […] Fluorescence of the cells is determined using a Spectramax Gemini spectrofluorimeter (Molecular Devices, Sunnyvale, Calif.). Sensitizers will be compared according to the rate at which the fluorescence approached its maximum final emission per 10^5 cells as well as by the final sensitizer concentrations in cells. The fluorescence values calculated for 10^5 cells will be compared to a standard curve of fluorescence obtained from known concentrations of each sensitizer.

R3230AC cells = assay: Viability of R3230AC cells in the dark and after light; format: cell-based, rat; details: 10^−6 M; 24 h after 0.9 J cm^−2 of 590-750 nm light
[4] = Tissue distribution by fluorescence in tumor-bearing BALB/c mice
Method: At various times after sensitizer administration, animals were sacrificed and sensitizer levels determined by direct extraction. In tumor-bearing animals (BALB/c mice or female Fischer rats), the concentration of sensitizer was determined by fluorescence spectroscopy where possible. At various time points post-injection of 5 μmol/kg of sensitizer or 90% of the LD10 (whichever is smaller), tissues were removed, weighed, homogenized, and frozen in liquid nitrogen (3-5 animals per time point). The homogenate, after thawing, was taken up in Solvable and the emission from sensitizer was quantified in terms of ng of sensitizer/mg of protein. With non-fluorescent sensitizers, sensitizer content was quantified spectrophotometrically. Distribution ratios were expressed as the uptake or retention of sensitizer in tumor relative to various normal tissues. Intensified digital fluorescence microscopy and/or confocal microscopy on frozen sections of the tumors, which were prepared from samples specified for this purpose, enabled us to assess intratumor sensitizer distributions.

Colo-26 tumors = assay: PDT against implanted Colo-26 tumors in BALB/c mice; format: in vivo; details: 135 J cm^−2; DH-105 2.5, DH-82 0.13, MA-99 0.15 mg/kg, 694 nm 4 h post-injection; Photofrin® 2.5 mg/kg, 630 nm 24 h
Method: Core-modified porphyrin 6 gave a PDT response in vivo with 694-nm light in BALB/c mice bearing Colo-26 tumors. Animals treated with photosensitizer 6 at 3.25 mg (3.0 μmol)/kg and light required 10.3±0.8 d to reach 400-mm^3 tumor volume, which was more than double the time for control animals (4.3±1.0 d) receiving neither drug nor light (P <0.01).
The animals were irradiated 4 h post-injection with 135 J cm^−2 of 694-nm red light from a dye laser (75 mW cm^−2 for 30 min). […] For comparison purposes, BALB/C mice bearing Colo-26 tumors were given 2.5 mg (4.0 μmol)/kg of Photofrin® as a 5% aqueous dextrose solution and were irradiated 24 h later with 135 J cm^−2 of 630-nm laser light at a power of 75 mW cm^−2 for PDT with Photofrin®.
Animals initially were given i.v. (tail vein) injections of sensitizer at various concentrations (0.05to 5.0 μmol/kg). Mice were restrained at various times thereafter without anesthesia in specially designed holders. Fischer 344 female rats were chemically restrained at various times thereafter. In both models, tumors or normal back skin were exposed to light from a xenon arc lamp with appropriate filters or to a dye laser tuned to the absorption maximum determined by in vivo reflectance measurements. Power density of delivered light typically fell in the range of 10-200 mW cm^−2 evenly distributed to a spot size of roughly 1.5 cm and measured by a radiometer. Several dose rates were explored to examine role/limitation of available oxygen on the photodynamic process. Intratumor temperatures were measured with an Omega HYP-O microthermocouple and, when necessary, a stream of nitrogen gas was used to keep intratumor temperatures below 37° C. Animals were examined and measured daily for the first 14 days post treatment and every other day thereafter until the tumors reached 400 mm^3 in mice or until the tumors double in size for Fischer 344 female rats or for 90 days. Tumor size were measured in two dimensions with a caliper. Time to 400 mm^3 or volume doubling times of tumors from control and PDT-treated groups (8-12 animals per group) were compared statistically using the SAS statistical program (SAS, Inc., Cary, N.C.). A P-value of <0.05 is considered significant. The degree of damage to the normal skin within the irradiation field also were noted. Disappearance of tumor with minimal damage to normal skin is the most desirable response. Animals are considered cured if no tumor regrowth occurs by 90 days. In all studies, three control groups were utilized in addition to the treatment group receiving both sensitizer and light: 1) a complete control receiving neither drug nor light, 2) a group receiving sensitizer only, and 3) a group receiving light only. Representative animals from each of the treatment groups were processed for histology immediately, one day, or two weeks after irradiation. Step sections through the tumor were used to define the boundaries of tumor cell damage and death as a function of distance from the skin surface.

[5] = BALB/c mice with Colo-26 tumors, DH-82 5 mg/kg, MA-99 2.5 mg/kg

In the case of `O=C([O-])COc1ccc(-c2c3nc(c(-c4ccc(F)cc4)c4ccc(s4)c(-c4ccc(F)cc4)c4nc(c(-c5ccc(OCC(=O)[O-])cc5)c5ccc2s5)C=C4)C=C3)cc1.[Na+].[Na+]` [MA-99], the EC50 (Colo-26 cells; 4 J cm^−2 of 590-800 nm light, read-out: EC50 against Colo-26 cells) is reported as 430 nM, the “phototoxicity relative to Photofrin® with laser excitation (FIG. 4a)” value (Colo-26 cells; Colo-26 cells, 694 nm dye laser for DH-82 and MA-99, 630 nm dye laser for Photofrin®) is reported as “significantly greater phototoxicity at lower concentrations than Photofrin®” and the “quantum yield for the generation of singlet oxygen φ(^1O2)” value [1] is reported as 0.71 ± 0.02. For the same compound, the “rate of photobleaching (kbleach)” value [2] was 0.16 ± 0.02 × 10^4 s^−1, the “phototoxicity relative to Photofrin® toward R3230AC cells (surviving fraction, FIG. 4c)” value [3] was “more phototoxic than Photofrin®” and the “final intracellular concentration relative to that for DH-82” value (MCF-7 cells) was “approximately 80%”. For the same compound, the “reduction in cell number after light exposure” value (R3230AC cells) was 40%, the “concentration in tumor 24 h post-injection” value ([4]; 2.5 mg (3.2 μmol)/kg of MA-99, Colo-26 tumors) was 0.65±0.10 μg/mg of protein and the “increase in photosensitizer uptake in tumor relative to compound 6” value ([4]; 24 h post-injection) was “greater than twenty-fold increase”. The “concentration in skin at 1 h post-injection” value [4, 5] was 0.09±0.04 μg/mg of protein, the “concentration in skin at 24 h post-injection” value [4, 5] was 0.01±0.01 μg/mg of protein and the “concentration in tumor versus other tissues at 24 h post-injection” value ([4]; liver, kidney, lung, heart, spleen, muscle, skin) was “higher in the tumor than in the other tissues examined”. The “cures (no tumor regrowth 90 days post-treatment)” value (Colo-26 tumors) was “five cures” and the “mean time to 400 mm^3 of the animals not cured” value (Colo-26 tumors) was 23 ± 7 days.
